Measurements reported in patent US9120816B2, “Oxanorbornadiene derivatives and their anticancer activities” (priority 2012, dated 2015).
Read-outs that look alike come from different tables or passages of the source.

Experiments:
[1] = system: MDA-MB-231 (human breast adenocarcinoma); test: MTT cytotoxicity assay, MDA-MB-231; type: cell-based; conditions: for IC50: Homo sapiens, MDA-MB-231
Description: (§1) Cytotoxic activities of all compounds are evaluated by MTT assay using KYSE-150 (human oesophagus carcinoma), MKN-45 (human gastric aednocarcinoma), DLD-1 (human colorectal carcinoma cell line), HepG2 (human hepatocellular carcinoma), MCF-7 (human breast adenocarcinoma), and MDA-MB-231 (human breast adenocarcinoma). Canthatidin is used as positive control.
(§2) Cells are seeded in a 96-well plate (4×10^3 cells/well) and allowed to attach overnight.
(§3) After the recovery, cells are treated with 1.56 μM, 3.125 μM, 6.25 μM, 12.5 μM, 25 μM, 50 μM of each of the compounds in culture medium for 48 hrs. […] Finally, the culture medium is removed and 200 μL of DMSO are added to each well to dissolve the purple formazan crystals.

[2] = system: MCF-7 (human breast adenocarcinoma); test: MTT cytotoxicity assay, MCF-7; type: cell-based; conditions: for IC50: Homo sapiens, MCF7
Description: as §1, §2, §3

[3] = system: KYSE-150 (human oesophagus carcinoma); test: MTT cytotoxicity assay, KYSE-150; type: cell-based; conditions: for IC50: Homo sapiens, KYSE-150
Description: as §1, §2, §3

[4] = system: MKN-45 (human gastric aednocarcinoma); test: MTT cytotoxicity assay, MKN-45; type: cell-based; conditions: 48 hrs treatment
Description: as §1, §2, §3

[5] = system: HepG2 (human hepatocellular carcinoma); test: MTT cytotoxicity assay, HepG2; type: cell-based; conditions: 48 hrs treatment
Description: as §1, §2, §3

[6] = system: DLD-1 (human colorectal carcinoma cell line); test: MTT cytotoxicity assay, DLD-1; type: cell-based; conditions: for IC50: Homo sapiens, DLD-1
Description: as §1, §2, §3

KYSE-150 cells = test: Wound healing assay; type: cell-based, human; conditions: for Cell migration into the wound: KYSE-150 monolayer, 72 h, 1 and 2.5 μM/mL; for Viability of KYSE-150 cells as compared to controls: highest concentration of 1 μM/mL and 2.5 μM/mL
Description: In addition, wound healing assay is used to test whether the compounds 1, 2 and 3 could affect cell motility.
A wound healing assay is performed as follows: KYESE-150 cells are seeded in each well of the 12-well plate at 50% confluence in completed medium. After 24 hrs seeding, the monolayer is wounded by scoring with a sterile plastic tip (1 mL), then washed several times with medium to remove cell debris and then incubated in conditioned medium in the absence or presence of the tested compounds for various periods of time up to 72 h. […] Cell migration into the wound surface is monitored by Olympus IX71 microscopy and digitally photographed.

[7] = MTT, 48 hrs treatment, read-out: Cytotoxicity IC50, MDA-MB-231
[8] = MTT, 48 hrs treatment, read-out: Cytotoxicity IC50, MCF-7
[9] = MTT, 48 hrs treatment, read-out: Cytotoxicity IC50, KYSE-150
[10] = MTT, 48 hrs treatment, read-out: Cytotoxicity IC50, DLD-1

| Compound | IC50 [1, 7] [µM] | IC50 [2, 8] [µM] | IC50 [3, 9] [µM] | IC50 [4] [µM] | IC50 [5] [µM] | IC50 [6, 10] [µM] | Growth inhibition of DLD-1 cells as compared to positive control ([6]; compared with canthatidin) | Cell migration into the wound (KYSE-150 cells) | Viability of KYSE-150 cells as compared to controls (KYSE-150 cells) | IC50 ([1]; summary statement in conclusion, read-out: IC50 of cell growth inhibition, MDA-MB-231) [µM] | IC50 ([2]; summary statement in conclusion, read-out: IC50 of cell growth inhibition, MCF-7) [µM] | IC50 ([3]; summary statement in conclusion, read-out: IC50 of cell growth inhibition, KYSE-150) [µM] | IC50 ([6]; summary statement in conclusion, read-out: IC50 of cell growth inhibition, DLD-1) [µM] | Growth inhibition of MDA-MB-231 cells as compared to positive control ([1]; compared with canthatidin) | Growth inhibition of MCF-7 cells as compared to positive control ([2]; compared with canthatidin) | Growth inhibition of KYSE-150 cells as compared to positive control ([3]; compared with canthatidin) |
| --- | --- | --- | --- | --- | --- | --- | --- | --- | --- | --- | --- | --- | --- | --- | --- | --- |
| COc1ccc(C#CC2CC3OC2C(C(=O)OC(C)(C)C)=C3C(=O)OC(C)(C)C)cc1 (centres unmarked) [Compound 3] | 50.2 | 33.4 | 5.4 | 6.31 | 8.4 | 3.77 | growth-inhibiting effects | do not migrate into the wound | do not alter the viability |  |  |  |  |  |  |  |
| C[C@@]12C(=O)OC(=O)[C@]1(C)[C@H]1CC[C@@H]2O1 [Cantharidin, reference compound] | 4.69 | 13 | 3.1 | 4.52 | 3.1 | 13.9 |  |  |  |  |  |  |  |  |  |  |
| COC(=O)C1=C(C(=O)OC)C2OC1CC2C#Cc1ccc(OC)cc1 (centres unmarked) [Compound 1] | 2.3 | 2.46 | 1.82 | 21.3 | 6.2 | 6 |  | do not migrate into the wound | do not alter the viability | < 10 | < 10 | < 10 | < 10 |  |  |  |
| CCOC(=O)C1=C(C(=O)OCC)C2OC1CC2C#Cc1ccc(OC)cc1 (centres unmarked) [Compound 2] | 2.81 | 6.39 | 1.4 | 26 | 15.7 | 1.74 |  | do not migrate into the wound | do not alter the viability |  |  |  |  | growth-inhibiting effects | growth-inhibiting effects | growth-inhibiting effects |
